What all share (format): cell-based
Assay [1] deals with Bacillus pumilus (CN 607). As to the kind of experiment: MIC in broth, Gram+ strains. To be noted: B. pumilus (CN 607), Mueller-Hinton broth, 37° C., 18 hours, read-out: Minimal Inhibitory Concentration (MIC). As for the experimental part:
(§1) Evaluation of the Minimal Inhibitory Concentration (MIC) in broth of 15 new substances for Gram+ bacterial strains.
(§2) The following strains were used: Staphylococcus aureus (4); Streptococcus faecalis (8); Bacillus pumilus (1); Bacillus subtilis (1).
(§3) MICs were determined by a standard microdilution test, using serial two-fold dilutions of the substances in Mueller-Hinton broth.
(§4) The inoculum was prepared from an overnight culture in Mueller-Hinton broth matching the 0.5 Mc Farland (turbidity) standard (BRAY W. E., Clinical Laboratory Methods, 5th Ed. C. V. MOSBY, St. Louis, Mo. 1957), and was adjusted to a final concentration of 5.0×10^4 colony-forming units/ml.
(§5) Equal volumes (0.1 ml) of both bacterial suspensions and substance solutions were distributed in microtiter plates (Falcon, 96 wells, round bottom), and then placed in a humidified incubator (37° C.) for 18 hours.
(§6) The results, in terms of MIC values, resistant strain number and mean MIC values versus susceptible strains, are illustrated in Tables 1-6.

The subject of assay [2] is Staphylococcus aureus (303). As to the kind of experiment: MIC in broth, Gram+ strains. To be noted: S. aureus (303), Mueller-Hinton broth, 37° C., 18 hours, read-out: Minimal Inhibitory Concentration (MIC). As for the experimental part:
as §1, §2, §3, §4, §5, §6

Assay [3] deals with Staphylococcus aureus (306 MR). Kind of assay: MIC in broth, Gram+ strains. To be noted: S. aureus (306 MR), Mueller-Hinton broth, 37° C., 18 hours, read-out: Minimal Inhibitory Concentration (MIC). As for the experimental part: as §1, §2, §3, §4, §5, §6
Assay [4] deals with Streptococcus faecalis (501). Kind of assay: MIC in broth, Gram+ strains. To be noted: Enterococcus faecalis; S. faecalis (501), Mueller-Hinton broth, 37° C., 18 hours; read-out: Minimal Inhibitory Concentration (MIC). As for the experimental part:
as §1, §2, §3, §4, §5, §6

Assay [5] has as its system Streptococcus faecalis (509). As to the kind of experiment: MIC in broth, Gram+ strains. To be noted: Enterococcus faecalis; S. faecalis (509), Mueller-Hinton broth, 37° C., 18 hours; read-out: Minimal Inhibitory Concentration (MIC). As for the experimental part: as §1, §2, §3, §4, §5, §6
The next assay relates to Gram+ bacterial strains. As to the kind of experiment: Mean MIC in broth and resistant strain number, Gram+ strains. To be noted: 18 h, versus susceptible strains. As for the experimental part:
as §1, §2, §3, §4, §5, §6

Assay [6] deals with Enterobacter aerogenes (UM). Kind of assay: MIC in broth, Gram- strains. To be noted: Klebsiella aerogenes, 18 h, read-out: Minimal Inhibitory Concentration (MIC). As for the experimental part:
as §3, §4, §5
(§7) Evaluation of the Minimal Inhibitory Concentration (MIC) in broth of 16 new substances for Gram- bacterial strains.
(§8) The following strains were used: Enterobacter (1), Escherichia (3), Klebsiella (3), Proteus (3); Pseudomonas (2); Salmonella (2), Serratia (1).

The next assay concerns Escherichia coli (92 F). As to the kind of experiment: MIC in broth, Gram- strains. To be noted: 18 h, E. coli (92 F), read-out: Minimal Inhibitory Concentration (MIC). As for the experimental part: as §3, §4, §5, §7, §8
In the next assay the test system is Klebsiella oxytoca (552). As to the kind of experiment: MIC in broth, Gram- strains. To be noted: 18 h, read-out: Minimal Inhibitory Concentration (MIC). As for the experimental part: as §3, §4, §5, §7, §8
The subject of the next assay is Proteus vulgaris (UM). Kind of assay: MIC in broth, Gram- strains. To be noted: 18 h, read-out: Minimal Inhibitory Concentration (MIC). As for the experimental part: as §3, §4, §5, §7, §8
For assay [7], the system named is Pseudomonas aeruginosa (3 E). Kind of assay: MIC in broth, Gram- strains. To be noted: 18 h, read-out: Minimal Inhibitory Concentration (MIC). As for the experimental part: as §3, §4, §5, §7, §8
In the next assay the test system is Gram- bacterial strains. As to the kind of experiment: Mean MIC in broth and resistant strain number, Gram- strains. To be noted: 18 h, read-out: Mean MIC values. As for the experimental part: as §3, §4, §5, §7, §8
In assay [8] the test system is Bacillus subtilis (ATCC 6051). Kind of assay: MIC in broth, Gram+ strains. To be noted: ATCC6051, B. subtilis (ATCC 6051), Mueller-Hinton broth, 37° C., 18 hours, read-out: Minimal Inhibitory Concentration (MIC). As for the experimental part: as §1, §2, §3, §4, §5, §6

This is an account of results in patent US5498632A, “Esters of acyl carnitines with long-chain aliphatic alcohols and pharmaceutical compositions containing same having antibacterial activity” (Sigma-Tau Industrie Farmaceutiche Riunite S.p.A., priority 1992, dated 1996).

Consider `CCCCCCCCCCCCCOC(=O)CC(C[N+](C)(C)C)OC(=O)CCCCCC` (stereo not shown) [ST 1050], for which the MIC in assay [1] stood at 1.56 µg/mL; in assay [2] it was 6.25 µg/mL; in assay [3], 6.25 µg/mL; in [4] it was 3.12 µg/mL; in [5], 3.12 µg/mL; against Gram+ bacterial strains, 4.06 µg/mL. Further, the MIC (in [6]; with Escherichia coli (92 F); in the assay on Klebsiella oxytoca (552); in the assay with Proteus vulgaris (UM); in assay [7]; in the assay with Gram- bacterial strains) was more than 100 µg/mL throughout.

Turning to `CCCCCCCCCCCCCOC(=O)CC(C[N+](C)(C)C)OC(=O)C(C)CCCC` (stereo not shown) [ST 1051], the MIC in assay [1] was 1.56 µg/mL; in assay [2] it was 6.25 µg/mL; in assay [3], 12.5 µg/mL; in assay [4], 6.25 µg/mL; in assay [5], 6.25 µg/mL; with Gram+ bacterial strains, 6.56 µg/mL. The MIC (in assay [6]; in the assay with Escherichia coli (92 F); with Klebsiella oxytoca (552); in the assay with Proteus vulgaris (UM); in [7]; with Gram- bacterial strains) was more than 100 µg/mL throughout.

As to `CCCCCCCCCCCCCOC(=O)CC(C[N+](C)(C)C)OC(=O)CCCCC` (stereo not shown) [ST 1052], the MIC in [1] came out at 1.56 µg/mL; in assay [8] it was 3.12 µg/mL; in assay [2], 3.12 µg/mL; in assay [3], 3.12 µg/mL; in assay [4], 3.12 µg/mL; in assay [5], 1.56 µg/mL. The MIC is 2.49 µg/mL in the assay on Gram+ bacterial strains; more than 100 µg/mL in [6]; more than 100 µg/mL with Escherichia coli (92 F); more than 100 µg/mL in the assay on Klebsiella oxytoca (552); more than 100 µg/mL in the assay on Proteus vulgaris (UM); more than 100 µg/mL in assay [7]. Moreover, the MIC in the assay on Gram- bacterial strains is more than 100 µg/mL.

For the compound `CCCCCCCCCCCCCOC(=O)CC(C[N+](C)(C)C)OC(=O)CCCCCCC` (stereo not shown) [ST 1053], the MIC is 1.56 µg/mL in [1]; 6.25 µg/mL in assay [2]; 6.25 µg/mL in [3]; 6.25 µg/mL in assay [4]; 1.56 µg/mL in [5]; 4.37 µg/mL in the assay on Gram+ bacterial strains. For the same compound, the MIC (in [6]; in the assay on Escherichia coli (92 F); in the assay with Klebsiella oxytoca (552); in the assay on Proteus vulgaris (UM); in assay [7]; in the assay on Gram- bacterial strains) was more than 100 µg/mL each time.
